Where two headings read alike, the source gives them in different places.
Assay: log P determination by HPLC (reversed-phase C18), EEC Directive 79/831 Annex V.A8
Format: physicochemical
Details: pH 2.3, HPLC, reversed-phase C 18, 43° C., 0.1% aqueous phosphoric acid/acetonitrile, read-out: log P (pH 2.3)
Method: The stated log P values were determined in accordance with EEC Directive 79/831 Annex V.A8 by HPLC (High Performance Liquid Chromatography) using a reversed-phase column, (C 18). Temperature: 43° C. Mobile phases for the determination in the acidic range: 0.1% aqueous phosphoric acid, acetonitrile; linear gradient from 10% acetonitrile to 90% acetonitrile. Calibration was carried out using unbranched alkan-2-ones (having 3 to 16 carbon atoms) with known logP values (determination of the logP values by the retention times using linear interpolation between two successive alkanones).

chromatographic logP (reversed-phase C18 HPLC column)	Structure (SMILES)	chromatographic logP
0.99	CS(=O)(=O)c1nccc(-c2ccccn2)n1 [2-(methylsulphonyl)-4-(2-pyridinyl)pyrimidine]	–
1.93	CSc1nccc(-c2ccccn2)n1 [2-(methylthio)-4-(2-pyridinyl)pyrimidine]	–
2.56	CC(C)OC(=O)CSc1nccc(-c2ccccn2)n1 [Example 1, isopropyl {[4-(2-pyridinyl)-2-pyrimidinyl]thio}-acetate]	–
2.74	CCOC(=O)C(C)Sc1nccc(-c2ccccn2)n1 (stereo not shown) [Example 2, ethyl-2-{[4-(2-pyridinyl)-2-pyrimidinyl]thio}-propanoate]	–
2.73	CN(C(=O)CSc1nccc(-c2ccccn2)n1)c1ccc(Cl)cc1 [Example 3, N-(4-chlorophenyl)-N-methyl-2-{[4-(2-pyridinyl)-2-pyrimidinyl]thio}acetamide]	–
2.45	CCOC(=O)CSc1nc(C)cc(-c2ccccn2)n1 [Example 4, ethyl {[4-methyl-6-(2-pyridinyl)-2-pyrimidinyl]thio}acetate]	–
1.14	CCOC(=O)CNc1nccc(-c2ccccn2)n1 [Example 5, ethyl N-(4-(2-pyridinyl)-2-pyrimidinyl]glycinate]	–
1.66	CCOC(=O)CN(C)c1nccc(-c2ccccn2)n1 [Example 6, ethyl N-methyl-N-[4-(2-pyridinyl)-2-pyrimidinyl]glycinate]	–
1.73	CCOC(=O)COc1nccc(-c2ccccn2)n1 [Example 7, ethyl {[4-(2-pyridinyl)-2-pyrimidinyl]oxy}acetate]	–
–	CCOC(=O)NCc1nccc(-c2ccccn2)n1 [Example 8, ethyl [4-(2-pyridinyl)-2-pyrimidinyl]methylcarbamate]	1.14
1.81	COC(=O)CSc1nccc(-c2ccccn2)n1 [Example 10]	–
1.14	O=C(O)CSc1nccc(-c2ccccn2)n1 [Example 11]	–
1.37	COC(=O)CS(=O)(=O)c1nccc(-c2ccccn2)n1 [Example 12]	–
2.17	CCOC(=O)CSc1nccc(-c2ccccn2)n1 [Example 13]	–
1.76	COC(=O)CC(=O)CSc1nccc(-c2ccccn2)n1 [Example 14]	–
2.88	O=C(CSc1nccc(-c2ccccn2)n1)Oc1ccccc1 [Example 15]	–
2.76	CCCOC(=O)CSc1nccc(-c2ccccn2)n1 [Example 16]	–
2.37	C=COC(=O)CSc1nccc(-c2ccccn2)n1 [Example 17]	–
2.4	C=CCOC(=O)CSc1nccc(-c2ccccn2)n1 [Example 18]	–
2.99	O=C(CSc1nccc(-c2ccccn2)n1)OCc1ccccc1 [Example 19]	–
1.97	COCCOC(=O)CSc1nccc(-c2ccccn2)n1 [Example 20]	–
3.53	O=C(CSc1nccc(-c2ccccn2)n1)OC1CCCCC1 [Example 21]	–

chromatographic logP (reversed-phase C18 HPLC column)	Structure (SMILES)	chromatographic logP
2.58	CCOC(=O)C(C)OC(=O)CSc1nccc(-c2ccccn2)n1 (stereo not shown) [Example 22]	–
2.34	COC(=O)C(Sc1nccc(-c2ccccn2)n1)C(C)=O (stereo not shown) [Example 23]	–
2.16	COC(=O)C(Sc1nccc(-c2ccccn2)n1)C(=O)OC [Example 24]	–
2.68	CCC(Sc1nccc(-c2ccccn2)n1)C(=O)OC (stereo not shown) [Example 25]	–
3.5	COC(=O)C(Sc1nccc(-c2ccccn2)n1)c1ccccc1 (stereo not shown) [Example 26]	–
3.84	COC(=O)C(Cc1cccc(Cl)c1)Sc1nccc(-c2ccccn2)n1 (stereo not shown) [Example 27]	–
1.8	CCN(CC)C(=O)CSc1nccc(-c2ccccn2)n1 [Example 28]	–
0.69	NC(=O)CSc1nccc(-c2ccccn2)n1 [Example 29]	–
2.92	CCOC(=O)/C=C/CSc1nccc(-c2ccccn2)n1 [Example 30]	–
2.7	COC(=O)/C=C(/CSc1nccc(-c2ccccn2)n1)OC [Example 31]	–
1.81	CC(C)CNC(=O)CSc1nccc(-c2ccccn2)n1 [Example 32]	–
2.58	O=C(CSc1nccc(-c2ccccn2)n1)Nc1ccc(Cl)cc1 [Example 33]	–
1.89	COC(=O)/C(O)=C\c1nccc(-c2ccccn2)n1 [Example 34]	–
2.96	CC(C)(C)OC(=O)CSc1nccc(-c2ccccn2)n1 [Example 35]	–
0.55	O=C(CSc1nccc(-c2ccccn2)n1)NO [Example 36]	–
2.93	O=C(CSc1nccc(-c2ccccn2)n1)NCc1ccc(SC(F)(F)F)cc1 [Example 37]	–
2.96	O=C(CSc1nccc(-c2ccccn2)n1)NCCc1ccc(OC(F)(F)F)cc1 [Example 38]	–
2.72	O=C(CSc1nccc(-c2ccccn2)n1)NCc1ccccc1OC(F)(F)F [Example 39]	–
2.76	O=C(CSc1nccc(-c2ccccn2)n1)NCc1ccc(OC(F)(F)F)cc1 [Example 40]	–
2.83	O=C(CSc1nccc(-c2ccccn2)n1)NCCc1ccc(Cl)cc1Cl [Example 41]	–
2.82	O=C(CSc1nccc(-c2ccccn2)n1)NCCc1cccc(C(F)(F)F)c1 [Example 42]	–
3.4	CC(NC(=O)CSc1nccc(-c2ccccn2)n1)c1ccc(C(C)(C)C)cc1 (stereo not shown) [Example 43]	–

chromatographic logP (reversed-phase C18 HPLC column)	Structure (SMILES)	chromatographic logP
2.64	O=C(CSc1nccc(-c2ccccn2)n1)NCc1ccc(Cl)c(Cl)c1 [Example 44]	–
2.69	O=C(CSc1nccc(-c2ccccn2)n1)NCc1ccc(Cl)cc1Cl [Example 45]	–
2.62	O=C(CSc1nccc(-c2ccccn2)n1)NCc1cccc(C(F)(F)F)c1 [Example 46]	–
2.64	O=C(CSc1nccc(-c2ccccn2)n1)NCc1ccc(C(F)(F)F)cc1 [Example 47]	–
2.42	O=C(CSc1nccc(-c2ccccn2)n1)NCc1ccc(F)c(Cl)c1 [Example 48]	–
2.01	CN(Cc1ccc(Cl)nc1)C(=O)CSc1nccc(-c2ccccn2)n1 [Example 49]	–
2.58	CC(NC(=O)CSc1nccc(-c2ccccn2)n1)c1ccc(Cl)cc1 (stereo not shown) [Example 50]	–
2.58	O=C(CSc1nccc(-c2ccccn2)n1)NCCc1ccc(Cl)cc1 [Example 51]	–
1.94	O=C(CSc1nccc(-c2ccccn2)n1)NCc1ccc2c(c1)OCO2 [Example 52]	–
1.71	O=C(CSc1nccc(-c2ccccn2)n1)NCc1ccc(Cl)nc1 [Example 53]	–
2.38	O=C(CSc1nccc(-c2ccccn2)n1)NCc1ccc(Cl)cc1 [Example 54]	–
2	COc1ccc(CNC(=O)CSc2nccc(-c3ccccn3)n2)cc1 [Example 55]	–
2.56	Cc1ccc(CCNC(=O)CSc2nccc(-c3ccccn3)n2)cc1 [Example 56]	–
2.48	Cc1ccc(C(C)NC(=O)CSc2nccc(-c3ccccn3)n2)cc1 (stereo not shown) [Example 57]	–
0.95	CC(C)N1CCN(C(=O)CSc2nccc(-c3ccccn3)n2)CC1 [Example 58]	–
2.29	Cc1cccc(CNC(=O)CSc2nccc(-c3ccccn3)n2)c1 [Example 59]	–
1.94	CC1CN(C(=O)CSc2nccc(-c3ccccn3)n2)CC(C)O1 (stereo not shown) [Example 60]	–
2.67	CN(C(=O)CSc1nccc(-c2ccccn2)n1)C1CCCCC1 [Example 61]	–
1.14	O=C(CSc1nccc(-c2ccccn2)n1)NCc1ccccn1 [Example 62]	–
2.31	O=C(CSc1nccc(-c2ccccn2)n1)NC1CCCCC1 [Example 63]	–
1.82	O=C(CSc1nccc(-c2ccccn2)n1)NCc1ccco1 [Example 64]	–
1.55	O=C(CSc1nccc(-c2ccccn2)n1)N1CCOCC1 [Example 65]	–

chromatographic logP (reversed-phase C18 HPLC column)	Structure (SMILES)	chromatographic logP
2.09	O=C(CSc1nccc(-c2ccccn2)n1)N1CCCCC1 [Example 66]	–
1.83	O=C(CSc1nccc(-c2ccccn2)n1)NCC1CC1 [Example 67]	–
1.75	O=C(CSc1nccc(-c2ccccn2)n1)N1CCCC1 [Example 68]	–
1.56	O=C(CSc1nccc(-c2ccccn2)n1)NC1CC1 [Example 69]	–
1.65	C=CCNC(=O)CSc1nccc(-c2ccccn2)n1 [Example 70]	–
2.35	COC(=O)CCCSc1nccc(-c2ccccn2)n1 [Example 76]	–
3.46	COC(=O)CSc1nc(-c2ccccn2)c2cc(Cl)ccc2n1 [Example 77]	–
2.13	COC(=O)CCSc1nccc(-c2ccccn2)n1 [Example 78]	–
2.68	COC(=O)CCCCSc1nccc(-c2ccccn2)n1 [Example 79]	–
3.96	CCCOC(=O)C(Sc1nccc(-c2ccccn2)n1)C(C)C (stereo not shown) [Example 80]	–
3.37	O=C(CSc1nccc(-c2ccccn2)n1)OCCc1ccccc1 [Example 83]	–
2.72	CCOC(=O)CCCOC(=O)CSc1nccc(-c2ccccn2)n1 [Example 84]	–
6.15	CCCCCCCCCCOC(=O)CSc1nccc(-c2ccccn2)n1 [Example 85]	–
7.22	CCCCCCCCCCCCOC(=O)CSc1nccc(-c2ccccn2)n1 [Example 86]	–
3.86	O=C(CSc1nccc(-c2ccccn2)n1)OCCCCOc1ccccc1 [Example 88]	–
3.56	CC(C)CCOC(=O)CSc1nccc(-c2ccccn2)n1 [Example 89]	–
3.59	O=C(CSc1nccc(-c2ccccn2)n1)OCCCOc1ccc(F)cc1 [Example 91]	–
2.82	CC(=O)OCCCCCOC(=O)CSc1nccc(-c2ccccn2)n1 [Example 93]	–
3.48	CC(C)(C)OC(=O)CCCOC(=O)CSc1nccc(-c2ccccn2)n1 [Example 94]	–

— patent publication US7238697B2, “Pyridylpyrimidines for use as pesticides” (Bayer CropScience AG, priority 2001, dated 2007)
